From patent US20100137358A1, “SOLIFENACIN COMPOSITIONS” (DR. REDDY'S LABORATORIES LTD., priority 1996, published 2010) come the findings set out here.

A short description of this series: Storage stability of amorphous solifenacin succinate and premix compositions, purity and impurities by HPLC. In kind it is physicochemical. The note with it: triple laminated package, nitrogen atmosphere. On the procedure:
The spray-dried product was packaged in a triple laminated package (two polyethylene layers covered with a layer of aluminium foil) containing a nitrogen atmosphere and samples were analyzed for impurity content at the time of packaging and after 7 days of storage at 0-5° C., using high-performance liquid chromatography (HPLC). The results are tabulated below:
6. The dried solid was packed in a double polyethylene bag with a silica desiccant pouch and the package was exposed to 0-5° C. and room temperature (RT) conditions for 25 days, then was analyzed by XRD and HPLC. The analytical data are given below:
The solid prepared was packaged in a double polyethylene bag with a silica desiccant and exposed to 0-5° C. and room temperature (RT) conditions for 27 days, and then samples were analyzed by XRD and HPLC. The data are given below:
The dried solid was packaged in a double polyethylene bag with a silica desiccant and exposed to 0-5° C. conditions for 16 days. A sample was then analyzed by XRD and HPLC, giving the following results:
The solid prepared was packaged in a double polyethylene bag and exposed at 0-5° C. and at room temperature (RT) for 20 days. Samples were then analyzed by XRD and by HPLC, giving the data below:
The solid products of Examples 6A and 6B, similarly packaged and stored under 0-5° C. and RT conditions for about 7 months, were analyzed and the data are given below: […]

Regarding `O=C(O[C@H]1CN2CCC1CC2)N1CCc2ccccc2[C@@H]1c1ccccc1` [Example 2, Amorphous Solifenacin Succinate], the “HSI (highest single impurity)” value (7th day of storage at 0-5° C.) is listed as 0.25 % of drug content and the “HSI (highest single impurity)” value (initial, at the time of packaging) is recorded as 0.03 % of drug content.
